Data from ChEMBL document CHEMBL6074704, “The Antiepileptic Drug Levetiracetam Inhibits Carbonic Anhydrase: In Vitro and In Silico Studies on Catalytically Active Human Isoforms” (ACS Med Chem Lett, 2024).

Columns and labels:
Carbonic anhydrase 1 = Carbonic anhydrase 1 (Homo sapiens, UniProt P00915); assay: Inhibition of human CA1 preincubated for 15 mins by phenol red staining based stopped flow CO2 hydrase assay
Carbonic anhydrase 2 = Carbonic anhydrase 2 (Homo sapiens, UniProt P00918); assay: Inhibition of human CA2 preincubated for 15 mins by phenol red staining based stopped flow CO2 hydrase assay
Carbonic anhydrase 4 = Carbonic anhydrase 4 (Homo sapiens, UniProt P22748); assay: Inhibition of human CA4 preincubated for 15 mins by phenol red staining based stopped flow CO2 hydrase assay
[1] = molecular target: Carbonic anhydrase 5A, mitochondrial (Homo sapiens, UniProt P35218); assay: Inhibition of human CA VA preincubated for 15 mins by phenol red staining based stopped flow CO2 hydrase assay
[2] = molecular target: Carbonic anhydrase 5B, mitochondrial (Homo sapiens, UniProt Q9Y2D0); assay: Inhibition of human CA VB preincubated for 15 mins by phenol red staining based stopped flow CO2 hydrase assay
Carbonic anhydrase 6 = Carbonic anhydrase 6 (Homo sapiens, UniProt P23280); assay: Inhibition of human CA6 preincubated for 15 mins by phenol red staining based stopped flow CO2 hydrase assay
Carbonic anhydrase 9 = Carbonic anhydrase 9 (Homo sapiens, UniProt Q16790)
Carbonic anhydrase 13 = Carbonic anhydrase 13 (Homo sapiens, UniProt Q8N1Q1); assay: Inhibition of human CA13 preincubated for 15 mins by phenol red staining based stopped flow CO2 hydrase assay
Carbonic anhydrase 14 = Carbonic anhydrase 14 (Homo sapiens, UniProt Q9ULX7); assay: Inhibition of human CA14 preincubated for 15 mins by phenol red staining based stopped flow CO2 hydrase assay
Carbonic anhydrase 3 = Carbonic anhydrase 3 (Homo sapiens, UniProt P07451)
Description: Inhibition of human CA3 preincubated for 15 mins by phenol red staining based stopped flow CO2 hydrase assay

Carbonic anhydrase 7 = Carbonic anhydrase 7 (Homo sapiens, UniProt P43166)
Description: Inhibition of human CA7 preincubated for 15 mins by phenol red staining based stopped flow CO2 hydrase assay

Carbonic anhydrase 12 = Carbonic anhydrase 12 (Homo sapiens, UniProt O43570)
Sequence of Carbonic anhydrase 12 (O43570 whole entry): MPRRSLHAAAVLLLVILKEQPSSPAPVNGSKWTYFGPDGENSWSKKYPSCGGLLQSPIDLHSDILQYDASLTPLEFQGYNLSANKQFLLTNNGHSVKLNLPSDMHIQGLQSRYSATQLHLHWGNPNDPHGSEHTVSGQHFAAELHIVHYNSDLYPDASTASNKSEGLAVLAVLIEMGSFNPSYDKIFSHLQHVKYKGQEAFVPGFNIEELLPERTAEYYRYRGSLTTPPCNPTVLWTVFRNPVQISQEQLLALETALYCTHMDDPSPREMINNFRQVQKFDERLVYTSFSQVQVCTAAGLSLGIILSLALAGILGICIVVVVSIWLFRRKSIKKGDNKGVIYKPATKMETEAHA
Description: Inhibition of human CA12 preincubated for 15 mins by phenol red staining based stopped flow CO2 hydrase assay

Sequence of Carbonic anhydrase 1 (P00915 whole entry): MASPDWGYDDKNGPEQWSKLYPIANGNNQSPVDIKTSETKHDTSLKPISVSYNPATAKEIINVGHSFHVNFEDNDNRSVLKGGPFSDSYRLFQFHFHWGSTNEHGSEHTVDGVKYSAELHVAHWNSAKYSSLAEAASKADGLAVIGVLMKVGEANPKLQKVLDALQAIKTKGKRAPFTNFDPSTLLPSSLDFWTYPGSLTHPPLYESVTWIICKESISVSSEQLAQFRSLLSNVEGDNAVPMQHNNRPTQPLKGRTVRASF
Sequence of Carbonic anhydrase 6 (P23280 whole entry): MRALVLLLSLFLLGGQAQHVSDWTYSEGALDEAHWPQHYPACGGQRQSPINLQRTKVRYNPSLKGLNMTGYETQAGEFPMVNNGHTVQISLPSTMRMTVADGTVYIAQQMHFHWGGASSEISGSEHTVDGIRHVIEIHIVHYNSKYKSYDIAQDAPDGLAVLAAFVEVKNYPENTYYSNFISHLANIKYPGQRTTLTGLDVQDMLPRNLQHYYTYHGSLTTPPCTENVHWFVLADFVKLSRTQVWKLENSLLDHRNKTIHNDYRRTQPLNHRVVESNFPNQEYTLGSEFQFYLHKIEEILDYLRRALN
Sequence of Carbonic anhydrase 13 (Q8N1Q1 whole entry): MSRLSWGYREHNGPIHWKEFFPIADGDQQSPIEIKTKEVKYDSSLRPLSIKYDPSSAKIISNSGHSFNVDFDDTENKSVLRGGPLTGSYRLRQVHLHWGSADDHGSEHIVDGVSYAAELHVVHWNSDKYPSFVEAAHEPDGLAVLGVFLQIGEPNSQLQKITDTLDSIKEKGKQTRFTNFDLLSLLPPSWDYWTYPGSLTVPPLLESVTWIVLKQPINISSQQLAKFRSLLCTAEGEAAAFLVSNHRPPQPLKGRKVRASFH
Sequence of Carbonic anhydrase 7 (P43166 whole entry): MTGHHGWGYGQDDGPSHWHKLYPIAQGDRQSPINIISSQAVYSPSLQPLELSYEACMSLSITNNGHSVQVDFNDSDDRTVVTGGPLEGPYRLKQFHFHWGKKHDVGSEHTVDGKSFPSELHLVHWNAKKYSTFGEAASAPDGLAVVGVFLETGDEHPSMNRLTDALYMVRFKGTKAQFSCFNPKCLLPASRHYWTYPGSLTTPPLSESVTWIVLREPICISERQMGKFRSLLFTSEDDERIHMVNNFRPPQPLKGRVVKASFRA
Sequence of Carbonic anhydrase 5A, mitochondrial (P35218 whole entry): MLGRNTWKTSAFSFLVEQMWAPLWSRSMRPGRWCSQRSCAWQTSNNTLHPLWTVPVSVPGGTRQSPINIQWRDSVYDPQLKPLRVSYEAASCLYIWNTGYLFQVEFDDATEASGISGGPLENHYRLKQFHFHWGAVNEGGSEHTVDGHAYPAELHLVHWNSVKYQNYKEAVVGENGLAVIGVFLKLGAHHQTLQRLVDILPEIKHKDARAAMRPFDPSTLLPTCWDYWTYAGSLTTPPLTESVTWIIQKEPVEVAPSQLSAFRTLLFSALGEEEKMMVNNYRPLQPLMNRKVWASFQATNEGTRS
Sequence of Carbonic anhydrase 4 (P22748 whole entry): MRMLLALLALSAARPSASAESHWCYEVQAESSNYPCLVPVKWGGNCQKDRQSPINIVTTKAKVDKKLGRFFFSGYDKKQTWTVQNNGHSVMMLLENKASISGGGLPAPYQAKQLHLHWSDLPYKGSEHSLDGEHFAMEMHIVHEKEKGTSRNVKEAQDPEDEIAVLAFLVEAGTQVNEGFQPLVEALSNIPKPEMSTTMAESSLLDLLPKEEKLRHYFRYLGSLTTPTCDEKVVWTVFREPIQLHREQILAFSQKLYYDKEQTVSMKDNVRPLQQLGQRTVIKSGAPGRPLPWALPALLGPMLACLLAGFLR
Sequence of Carbonic anhydrase 14 (Q9ULX7 whole entry): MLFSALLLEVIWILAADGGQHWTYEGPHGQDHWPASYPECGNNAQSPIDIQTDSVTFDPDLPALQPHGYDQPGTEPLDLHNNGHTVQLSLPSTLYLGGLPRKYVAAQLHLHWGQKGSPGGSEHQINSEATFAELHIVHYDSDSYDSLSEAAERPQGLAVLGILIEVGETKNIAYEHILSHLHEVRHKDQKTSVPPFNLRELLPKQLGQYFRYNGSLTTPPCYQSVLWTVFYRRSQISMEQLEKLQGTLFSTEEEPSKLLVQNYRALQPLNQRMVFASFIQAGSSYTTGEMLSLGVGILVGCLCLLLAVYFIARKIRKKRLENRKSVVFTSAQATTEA
Sequence of Carbonic anhydrase 3 (P07451 whole entry): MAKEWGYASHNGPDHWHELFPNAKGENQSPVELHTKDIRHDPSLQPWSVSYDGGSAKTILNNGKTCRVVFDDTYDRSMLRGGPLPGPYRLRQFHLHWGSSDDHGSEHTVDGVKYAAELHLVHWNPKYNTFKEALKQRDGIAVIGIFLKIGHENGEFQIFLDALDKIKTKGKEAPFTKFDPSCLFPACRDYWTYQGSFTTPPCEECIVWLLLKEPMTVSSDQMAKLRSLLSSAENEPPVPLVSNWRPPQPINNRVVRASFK
Sequence of Carbonic anhydrase 5B, mitochondrial (Q9Y2D0 whole entry): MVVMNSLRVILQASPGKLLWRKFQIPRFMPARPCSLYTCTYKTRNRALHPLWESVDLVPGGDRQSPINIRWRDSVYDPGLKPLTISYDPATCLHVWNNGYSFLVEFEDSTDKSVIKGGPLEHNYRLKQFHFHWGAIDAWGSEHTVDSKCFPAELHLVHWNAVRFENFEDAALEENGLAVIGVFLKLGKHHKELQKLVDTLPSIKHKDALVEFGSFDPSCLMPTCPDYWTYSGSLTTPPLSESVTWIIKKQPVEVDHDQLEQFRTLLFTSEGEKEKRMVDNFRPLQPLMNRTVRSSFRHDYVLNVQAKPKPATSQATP

CC[C@@H](C(N)=O)N1CCCC1=O
Ki (Carbonic anhydrase 1): 7.95 µM
Ki (Carbonic anhydrase 2): 3.92 µM
Ki (Carbonic anhydrase 4): 5.3 µM
Ki [1]: 9.2 µM
Ki [2]: 3.86 µM
Ki (Carbonic anhydrase 6): 8.4 µM
Ki (Carbonic anhydrase 9): 0.089 µM
Ki (Carbonic anhydrase 13): 4.17 µM
Ki (Carbonic anhydrase 14): 2.27 µM
Ki (Carbonic anhydrase 3): 2.44 µM
Ki (Carbonic anhydrase 7): 7.55 µM
Ki (Carbonic anhydrase 12): 0.054 µM
